Data taken from patent US6544502B2, “Skin treatment with a water soluble antibiotic dissolved in an electrolyzed water” (Wasatch Pharmaceutical Inc., priority 1992, dated 2003).

What was measured:
[1] = Stability of antibiotic in aqueous solution; assay type: physicochemical; conditions: hydrate salt in water
[2] = Solubility of antibiotic (water, lipoid); assay type: physicochemical

Substance: Doxycycline hyclate
- stability of water soluble salt [1]: no pH sensitivity or breakdown into the inactive ingredients
- lipoid solubility [2]: high degree of lipoid solubility
- solubility in water [2]: readily soluble in water
